Reference: paper PMC12640828 (Frontiers in Pharmacology, 2025)

Tests used:
[1] = test system: Rat cardiac H9C2 cells; experiment: MTT-cell viability assay; format: cell-based; settings: 1 μM, 3 μM and 10 µM, 4 days, MTT colorimetric
Method: The rat cardiac H9C2 cells were maintained in Dulbecco’s Modified Eagle Medium (DMEM) cell culture medium (supplemented with 10% fetal bovine serum, 4.5 gm/liter D-glucose, and 1x penicillin-streptomycin antibiotic solution) and grown at 37 °C in a humidified incubator with 5% CO2. Cells in a 96-well plate were treated with 1 μM, 3 μM, and 10 µM concentrations of NMEG-CGRP and CMEG-CGRP and further grown for 4 days. The cell viability assay was performed using colorimetric MTT-cell proliferation kit I (Roche-Millipore Sigma, St Louis, MO) following the vendor’s protocol.

[2] = target: T1, insulin-degrading enzyme (IDE) (Homo sapiens, UniProt P14735); experiment: In vitro peptide digestion with IDE followed by LC-MS; format: in vitro ADME; settings: 100 µM peptide, 0.1 µg IDE, 50 mM Tris-Cl pH 7.5 + 1M NaCl, 25 µL, 37 °C, sampled at 5, 30, 60 min
T1 construct: purchased R&D Systems, Minneapolis, MN
T1 sequence (P14735 1-1019): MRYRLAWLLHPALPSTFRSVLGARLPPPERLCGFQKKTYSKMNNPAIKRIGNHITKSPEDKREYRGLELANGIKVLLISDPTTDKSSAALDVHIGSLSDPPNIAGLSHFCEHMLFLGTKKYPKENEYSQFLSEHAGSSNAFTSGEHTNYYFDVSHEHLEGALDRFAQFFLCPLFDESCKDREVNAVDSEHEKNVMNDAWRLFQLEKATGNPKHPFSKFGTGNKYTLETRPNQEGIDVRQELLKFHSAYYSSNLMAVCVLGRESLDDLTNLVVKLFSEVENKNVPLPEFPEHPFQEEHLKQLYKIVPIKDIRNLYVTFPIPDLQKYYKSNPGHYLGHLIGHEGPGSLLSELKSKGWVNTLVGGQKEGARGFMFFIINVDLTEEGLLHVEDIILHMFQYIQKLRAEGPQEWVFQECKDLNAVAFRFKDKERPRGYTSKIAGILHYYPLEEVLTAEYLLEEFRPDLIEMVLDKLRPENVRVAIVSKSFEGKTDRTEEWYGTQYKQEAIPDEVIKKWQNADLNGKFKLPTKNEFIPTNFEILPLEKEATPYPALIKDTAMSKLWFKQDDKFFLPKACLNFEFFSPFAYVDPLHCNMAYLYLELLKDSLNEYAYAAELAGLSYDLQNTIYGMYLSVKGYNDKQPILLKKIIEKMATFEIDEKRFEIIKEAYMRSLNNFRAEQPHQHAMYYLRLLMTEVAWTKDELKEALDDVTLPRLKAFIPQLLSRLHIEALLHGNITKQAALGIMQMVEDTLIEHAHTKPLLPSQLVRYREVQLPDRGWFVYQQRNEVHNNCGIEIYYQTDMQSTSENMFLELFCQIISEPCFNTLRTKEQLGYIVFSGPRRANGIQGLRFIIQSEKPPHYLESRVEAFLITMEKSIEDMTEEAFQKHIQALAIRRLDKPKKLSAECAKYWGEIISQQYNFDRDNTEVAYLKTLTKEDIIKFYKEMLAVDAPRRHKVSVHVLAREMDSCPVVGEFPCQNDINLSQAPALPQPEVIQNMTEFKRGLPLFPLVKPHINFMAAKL
Method: An equal volume (25 µL) of 10% formic acid (Sigma) was added. After heating the reaction at 95 °C for 5 min, desalting of the peptides was carried out using Pierce C18 tips (87782; ThermoFisher Scientific). For peptide-desalting, 30 µL of 2.5% trifluoroacetic acid (TFA) was added in a total 50 µL of the peptide-digestion reaction. Pierce C18 tips were wetted in 50% acetonitrile:water soln, equilibrated with 0.1% TFA, and peptides were passed through the C18 tips. After washing the C18 tips with 0.1% TFA in 5% acetonitrile:water soln, peptides were eluted in 10 µL of 0.1% formic acid in 75% acetonitrile: water soln and stored at −80 °C. Desalted peptide samples were submitted for Liquid Chromatography Mass Spectrometry (LC-MS) analysis to the University of South Carolina-Mass Spectrometry Center.

[3] = test system: TAC pressure-overload induced HF in mice; experiment: TAC pressure-overload heart failure in mice: echocardiography and heart weight; format: in vivo, male C57BL/6 mice; settings: 3.6 mg/kg/mouse s.c. on alternate days for 28 days
Method: Eight-week-old male C57BL/6 mice, purchased from Charles River Laboratories (Wilmington, MA), were housed in the institutional animal facility on a 12 h light/12 h dark cycle with free access to food and water throughout. Animal protocols were approved by the University of South Carolina-Institutional Animal Care and Use Committee (IACUC) following the NIH guidelines.
A transverse aortic constriction (TAC) procedure was followed to induce pressure-overload HF in mice ([Li et al., 2013]; [Kumar et al., 2019b]; [Kumar et al., 2020]). Briefly, mice were anesthetized under 1%–2% isoflurane and the chests of these mice were opened through the suprasternal notch. A 7–0 polypropylene suture was passed under the aortic arch between the left common carotid and innominate arteries and tied around the aorta and a 27-G needle. After tying a knot, the needle was removed, and the chest was closed using a 6–0 suture. Mice were kept on the 37 °C heat pad until they recovered and buprenorphine (0.1 mg/kg/mouse) was given subcutaneously (s.c.) as post-operative care. An identical procedure except tying a knot around the aortic arch was performed in the Sham groups of mice. Two days post-TAC, mice were divided into four groups (6–7 mice/gr): i- Sham, ii- Sham+NMEG-CGRP, iii- TAC, and iv- TAC+NMEG-CGRP. A stock solution 1 mg/mL of NMEG-CGRP was prepared in sterile 0.9% NaCl soln and NMEG-CGRP at 3.6 mg/kg/mouse dose was injected s.c. in the Sham+NMEG-CGRP and TAC+NMEG-CGRP groups of mice on alternate days for a total of 28 days. […]
The short axis 2D echocardiography was performed before TAC procedure (day 0) and then weekly after start of NMEG-CGRP administration in all groups of mice under 1%–2% isoflurane anesthesia using Vevo 3100 High-Resolution Imaging System (VisualSonics Inc., Toronto, Canada) and cardiac parameters were calculated using VisualSonics Measurement Software ([Li et al., 2013]; [Kumar et al., 2020]).

[4] = Solubility in water; format: physicochemical

| Time to complete digestion of full-length peptide by IDE [2] [min] | EF, Sham vs. Sham+NMEG-CGRP ([3]; sham mice, day 30) | Fractional shortening (FS), Sham vs. Sham+NMEG-CGRP ([3]; sham mice, day 30) | Solubility in water [4] | SMILES | Viability of cardiac cells (MTT optical density vs control) [1] | Abnormalities / adverse effect in mice during NMEG-CGRP delivery ([3]; Sham- and TAC-mice) |
| --- | --- | --- | --- | --- | --- | --- |
| > 60 | non-significant | non-significant | soluble in water | COCCNCC(=O)N(CCOC)CC(=O)N[C@@H](C)C(=O)N[C@H]1CSSC[C@@H](C(=O)N[C@H](C(=O)N[C@H](C(=O)N[C@@H](Cc2c[nH]cn2)C(=O)N[C@@H](CCCNC(=N)N)C(=O)N[C@@H](CC(C)C)C(=O)N[C@@H](C)C(=O)NCC(=O)N[C@@H](CC(C)C)C(=O)N[C@@H](CC(C)C)C(=O)N[C@@H](CO)C(=O)N[C@@H](CCCNC(=N)N)C(=O)N[C@@H](CO)C(=O)NCC(=O)NCC(=O)N[C@H](C(=O)N[C@H](C(=O)N[C@@H](CCCCN)C(=O)N[C@@H](CC(N)=O)C(=O)N[C@@H](CC(N)=O)C(=O)N[C@@H](Cc2ccccc2)C(=O)N[C@H](C(=O)N2CCC[C@H]2C(=O)N[C@H](C(=O)N[C@@H](CC(N)=O)C(=O)N[C@H](C(=O)NCC(=O)N[C@@H](CO)C(=O)N[C@@H](CCCCN)C(=O)N[C@@H](C)C(=O)N[C@@H](Cc2ccccc2)C(N)=O)C(C)C)[C@@H](C)O)C(C)C)C(C)C)C(C)C)[C@@H](C)O)C(C)C)NC(=O)[C@H]([C@@H](C)O)NC(=O)[C@H](C)NC(=O)[C@H]([C@@H](C)O)NC(=O)[C@H](CC(=O)O)NC1=O [NMEG-CGRP] | did not inhibit the growth of H9C2 cells | did not observe any abnormalities |
| 5 to 30 |  |  |  | CC(C)C[C@H](NC(=O)CNC(=O)[C@H](C)NC(=O)[C@H](CC(C)C)NC(=O)[C@H](CCCNC(=N)N)NC(=O)[C@H](Cc1cnc[nH]1)NC(=O)[C@@H](NC(=O)[C@@H](NC(=O)[C@@H]1CSSC[C@H](NC(=O)[C@H](C)N)C(=O)N[C@@H](CC(=O)O)C(=O)N[C@@H]([C@@H](C)O)C(=O)N[C@@H](C)C(=O)N[C@@H]([C@@H](C)O)C(=O)N1)C(C)C)[C@@H](C)O)C(=O)N[C@@H](CC(C)C)C(=O)N[C@@H](CO)C(=O)N[C@@H](CCCNC(=N)N)C(=O)N[C@@H](CO)C(=O)NCC(=O)NCC(=O)N[C@H](C(=O)N[C@H](C(=O)N[C@@H](CCCCN)C(=O)N[C@@H](CC(N)=O)C(=O)N[C@@H](CC(N)=O)C(=O)N[C@@H](Cc1ccccc1)C(=O)N[C@H](C(=O)N1CCC[C@H]1C(=O)N[C@H](C(=O)N[C@@H](CC(N)=O)C(=O)N[C@H](C(=O)NCC(=O)N[C@@H](CO)C(=O)N[C@@H](CCCCN)C(=O)N[C@@H](C)C(=O)N[C@@H](Cc1ccccc1)C(N)=O)C(C)C)[C@@H](C)O)C(C)C)C(C)C)C(C)C [human α-CGRP, reference compound] |  |  |
